Measured values as given in patent publication US11248234B2, “Herbicide-resistant hydroxyphenylpyruvate dioxygenases” (BASF SE, priority 2015, dated 2022).
“Also recorded” adds a separate entry of the source.

Experiments:
[1] = target: Scenedesmus HPPD (Seq ID: 2) (Tetradesmus obliquus, UniProt A0A383WMN4, N195D); assay: In vitro HPPD activity assay; format: biochemical; conditions: normalized on Arabidopsis wild-type HPPD (SEQ ID NO:42)
Description: (§1) HPPD produces homogentisic acid and CO2 from 4-hydroxyphenylpyruvate (4-HPP) and O2. The activity assay for HPPD is based on the analysis of homogentisic acid by reversed phase HPLC.
(§2) The assay mixture can contain 150 mM potassium phosphate buffer pH 7.0, 50 mM L-ascorbic acid, 100 μM Catalase (Sigma-Aldrich), 1 μM FeSO4 and 0.2 units of purified mutated HPPD enzyme in a total volume of 505 μl. 1 unit is defined as the amount of enzyme that is required to produce 1 nmol of HGA per minute at 20° C.
(§3) After a preincubation of 30 min the reaction is started by adding 4-HPP to a final concentration of 0.05 mM. The reaction is allowed to proceed for 45 min at room temperature. The reaction is stopped by the addition of 50 μl of 4.5 M phosphoric acid. The sample is filtered using a […] pore size PVDF filtration device.
(§4) 5 μl of the cleared sample is analyzed on an UPLC HSS T3 column (particle size 1.8 μm, dimensions 2.1×50 mm; Waters) by isocratic elution using 90% 20 mM NaH2PO4 pH 2.2, 10% methanol (v/v).
(§5) HGA is detected electrochemically at 750 mV (mode: DC; polarity: positive) and quantified by integrating peak areas (Empower software; Waters).
(§6) Inhibitors are dissolved in DMSO (dimethylsulfoxide) to a concentration of 0.5 mM. From this stock solution serial five-fold dilutions are prepared in DMSO, which are used in the assay. The respective inhibitor solution accounts for 1% of the assay volume. Thus, final inhibitor concentrations range from 5 μM to 320 pM, respectively. Activities are normalized by setting the uninhibited enzyme activity to 100%. IC50 values are calculated using non-linear regression.
(§7) Using methods which are described in the above examples or well known in the art, purified, recombinant mutated HPPD enzymes are characterized with respect to their kinetic properties and sensitivity towards HPPD inhibiting herbicides. Apparent michaelis constants (Km) and maximal reaction velocities (Vmax) are calculated by non-linear regression with the software GraphPad Prism 5 (GraphPad Software, La Jolla, USA) using a substrate inhibition model. Apparent kcat values are calculated from Vmax assuming 100% purity of the enzyme preparation. Weighted means (by standard error) of Km and IC50 values are calculated from at least three independent experiments. The Cheng-Prusoff equation for competitive inhibition (Cheng, Y. C.; Prusoff, W. H. Biochem Pharmacol 1973, 22, 3099-3108) is used to calculate dissociation constants (Ki).
(§8) Field performance of the HPPD enzyme, which is used as a herbicide tolerance trait may depend not only on its lack of sensitivity towards HPPD inhibiting herbicides but also on its activity. To assess the potential performance of a herbicide tolerance trait a tolerance index (TI) is calculated using the following formula: […]
(§9) Easy comparison and ranking of each trait is enabled by normalizing tolerance indexes on Arabidopsis wild-type HPPD.

[2] = target: Scenedesmus Short HPPD (Seq ID: 4) (Tetradesmus obliquus, UniProt A0A383WMN4, DEL398-433/N195D); assay: In vitro HPPD activity assay; format: biochemical; conditions: normalized on Arabidopsis wild-type HPPD (SEQ ID NO:42)
Description: as §1, §2, §3, §4, §5, §6, §7, §8, §9

[3] = target: T1, Arabidopsis HPPD (Seq ID: 42) (Arabidopsis thaliana, UniProt P93836); assay: In vitro HPPD activity assay (homogentisic acid by HPLC); format: biochemical; conditions: benchmark enzyme; normalized on Arabidopsis wild-type HPPD
T1 construct: His6; made in house; host or cells: E. coli BL21 (DE3)
T1 sequence (P93836 1-445): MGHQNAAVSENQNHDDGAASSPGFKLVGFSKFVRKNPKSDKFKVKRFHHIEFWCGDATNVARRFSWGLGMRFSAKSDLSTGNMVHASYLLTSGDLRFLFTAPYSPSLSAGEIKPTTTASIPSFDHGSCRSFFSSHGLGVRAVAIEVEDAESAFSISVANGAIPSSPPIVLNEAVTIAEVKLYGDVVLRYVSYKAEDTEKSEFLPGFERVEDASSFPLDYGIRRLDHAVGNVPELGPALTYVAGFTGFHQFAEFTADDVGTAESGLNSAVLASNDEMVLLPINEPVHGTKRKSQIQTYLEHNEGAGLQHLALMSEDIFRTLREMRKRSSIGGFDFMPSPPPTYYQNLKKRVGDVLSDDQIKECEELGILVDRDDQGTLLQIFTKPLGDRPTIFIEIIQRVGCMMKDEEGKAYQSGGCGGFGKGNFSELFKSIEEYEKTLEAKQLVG
Description: as §1, §2, §3, §4, §5
as §6, with “Thus, final inhibitor concentrations range from 5 μM to 320 pM, respectively.” left out
as §7, with “Apparent kcat values are calculated from Vmax assuming 100% purity of the enzyme preparation.” left out, “experiments.” for “experiments. The Cheng-Prusoff equation for competitive inhibition (Cheng, Y. C.; Prusoff, W. H. Biochem Pharmacol 1973, 22, 3099-3108) is used to calculate dissociation constants (Ki).”
as §8, §9

SoHPPD A318R, L350M = assay: In vitro HPPD activity assay; format: biochemical, Scenedesmus obliquus; conditions: normalized on Arabidopsis wild-type HPPD (SEQ ID NO:42)
Description: as §1, §2, §3, §4, §5, §6, §7, §8, §9

SoHPPD Q317H = assay: In vitro HPPD activity assay; format: biochemical, Scenedesmus obliquus; conditions: normalized on Arabidopsis wild-type HPPD (SEQ ID NO:42)
Description: as §1, §2, §3, §4, §5, §6, §7, §8, §9

[4] = test system: SoHPPD A318R, L350M (short); assay: In vitro HPPD activity assay; format: biochemical, Scenedesmus obliquus; conditions: normalized on Arabidopsis wild-type HPPD (SEQ ID NO:42)
Description: as §1, §2, §3, §4, §5, §6, §7, §8, §9

[5] = test system: SoHPPD A318P, A319P (short); assay: In vitro HPPD activity assay; format: biochemical, Scenedesmus obliquus; conditions: normalized on Arabidopsis wild-type HPPD (SEQ ID NO:42)
Description: as §1, §2, §3, §4, §5, §6, §7, §8, §9

[6] = test system: SoHPPD L367V, I375L (short); assay: In vitro HPPD activity assay; format: biochemical, Scenedesmus obliquus; conditions: normalized on Arabidopsis wild-type HPPD (SEQ ID NO:42)
Description: as §1, §2, §3, §4, §5, §6, §7, §8, §9

[7] = test system: SoHPPD F39W, L367V, I375L (short); assay: In vitro HPPD activity assay; format: biochemical, Scenedesmus obliquus; conditions: normalized on Arabidopsis wild-type HPPD (SEQ ID NO:42)
Description: as §1, §2, §3, §4, §5, §6, §7, §8, §9

SoHPPD E345Q (short) = assay: In vitro HPPD activity assay; format: biochemical, Scenedesmus obliquus; conditions: normalized on Arabidopsis wild-type HPPD (SEQ ID NO:42)
Description: as §1, §2, §3, §4, §5, §6, §7, §8, §9

SoHPPD Q317M (short) = assay: In vitro HPPD activity assay; format: biochemical, Scenedesmus obliquus; conditions: normalized on Arabidopsis wild-type HPPD (SEQ ID NO:42)
Description: as §1, §2, §3, §4, §5, §6, §7, §8, §9

SoHPPD F363I (short) = assay: In vitro HPPD activity assay; format: biochemical, Scenedesmus obliquus; conditions: normalized on Arabidopsis wild-type HPPD (SEQ ID NO:42)
Description: as §1, §2, §3, §4, §5, §6, §7, §8, §9

[8] = test system: SoHPPD Q317H, A318G, E345Q (short); assay: In vitro HPPD activity assay; format: biochemical, Scenedesmus obliquus; conditions: normalized on Arabidopsis wild-type HPPD (SEQ ID NO:42)
Description: as §1, §2, §3, §4, §5, §6, §7, §8, §9

SoHPPD E379Q (short) = assay: In vitro HPPD activity assay; format: biochemical, Scenedesmus obliquus; conditions: normalized on Arabidopsis wild-type HPPD (SEQ ID NO:42)
Description: as §1, §2, §3, §4, §5, §6, §7, §8, §9

[9] = test system: SoHPPD Q317H, A318G, E345Q; assay: In vitro HPPD activity assay; format: biochemical, Scenedesmus obliquus; conditions: normalized on Arabidopsis wild-type HPPD (SEQ ID NO:42)
Description: as §1, §2, §3, §4, §5, §6, §7, §8, §9

[10] = test system: SoHPPD K326E, E345Q (short); assay: In vitro HPPD activity assay; format: biochemical, Scenedesmus obliquus; conditions: normalized on Arabidopsis wild-type HPPD (SEQ ID NO:42)
Description: as §1, §2, §3, §4, §5, §6, §7, §8, §9

SoHPPD F363I = assay: In vitro HPPD activity assay; format: biochemical, Scenedesmus obliquus; conditions: normalized on Arabidopsis wild-type HPPD (SEQ ID NO:42)
Description: as §1, §2, §3, §4, §5, §6, §7, §8, §9

SoHPPD I455V = assay: In vitro HPPD activity assay; format: biochemical, Scenedesmus obliquus; conditions: normalized on Arabidopsis wild-type HPPD (SEQ ID NO:42)
Description: as §1, §2, §3, §4, §5, §6, §7, §8, §9

SoHPPD V251A (short) = assay: In vitro HPPD activity assay; format: biochemical, Scenedesmus obliquus; conditions: normalized on Arabidopsis wild-type HPPD (SEQ ID NO:42)
Description: as §1, §2, §3, §4, §5, §6, §7, §8, §9

SoHPPD Q317H (short) = assay: In vitro HPPD activity assay; format: biochemical, Scenedesmus obliquus; conditions: normalized on Arabidopsis wild-type HPPD (SEQ ID NO:42)
Description: as §1, §2, §3, §4, §5, §6, §7, §8, §9

SoHPPD L367V, I375L = assay: In vitro HPPD activity assay; format: biochemical, Scenedesmus obliquus; conditions: normalized on Arabidopsis wild-type HPPD (SEQ ID NO:42)
Description: as §1, §2, §3, §4, §5, §6, §7, §8, §9

SoHPPD H306K (short) = assay: In vitro HPPD activity assay; format: biochemical, Scenedesmus obliquus; conditions: normalized on Arabidopsis wild-type HPPD (SEQ ID NO:42)
Description: as §1, §2, §3, §4, §5, §6, §7, §8, §9

SoHPPD I419V (short) = assay: In vitro HPPD activity assay; format: biochemical, Scenedesmus obliquus; conditions: normalized on Arabidopsis wild-type HPPD (SEQ ID NO:42)
Description: as §1, §2, §3, §4, §5, §6, §7, §8, §9

Chain of Scenedesmus HPPD (Seq ID: 2) (A0A383WMN4 entry or part of it N195D): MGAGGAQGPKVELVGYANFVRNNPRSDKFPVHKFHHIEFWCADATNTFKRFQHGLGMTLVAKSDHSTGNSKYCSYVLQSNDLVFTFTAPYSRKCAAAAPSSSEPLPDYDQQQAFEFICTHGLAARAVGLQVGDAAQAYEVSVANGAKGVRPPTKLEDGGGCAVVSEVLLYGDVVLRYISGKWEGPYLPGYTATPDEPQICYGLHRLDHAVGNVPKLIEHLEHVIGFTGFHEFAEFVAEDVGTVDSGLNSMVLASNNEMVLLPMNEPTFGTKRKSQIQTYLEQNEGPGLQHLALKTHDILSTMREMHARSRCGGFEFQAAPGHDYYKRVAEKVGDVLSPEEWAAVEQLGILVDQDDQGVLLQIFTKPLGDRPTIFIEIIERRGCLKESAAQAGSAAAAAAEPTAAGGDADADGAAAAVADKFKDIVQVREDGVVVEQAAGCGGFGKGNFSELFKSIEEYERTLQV
Chain of Scenedesmus Short HPPD (Seq ID: 4) (A0A383WMN4 entry or part of it N195D/DEL398-433): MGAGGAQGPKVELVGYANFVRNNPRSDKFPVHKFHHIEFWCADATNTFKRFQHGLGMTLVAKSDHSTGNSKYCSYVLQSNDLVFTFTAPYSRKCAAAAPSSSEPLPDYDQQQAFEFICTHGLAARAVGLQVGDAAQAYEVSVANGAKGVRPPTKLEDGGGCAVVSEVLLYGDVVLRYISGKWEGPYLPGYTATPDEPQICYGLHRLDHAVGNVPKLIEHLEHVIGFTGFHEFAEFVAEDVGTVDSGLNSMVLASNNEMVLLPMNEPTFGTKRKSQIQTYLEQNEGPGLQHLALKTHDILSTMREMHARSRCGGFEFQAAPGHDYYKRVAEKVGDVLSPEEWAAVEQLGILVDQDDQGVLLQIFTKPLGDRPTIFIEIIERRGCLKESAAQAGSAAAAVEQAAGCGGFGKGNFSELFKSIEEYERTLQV

## CC[S+]([O-])c1c(Cl)cc(F)c(C(=O)Nc2nnnn2C)c1Cl (centres unmarked) [Inhibitor 9, 2,4-dichloro-3-ethylsulfinyl-6-fluoro-N-(1-methyltetrazol-5-yl)benzamide]
[1]
  TI (normalized tolerance index): 0.1
[2]
  TI (normalized tolerance index): 1.2
[3]
  TI (normalized tolerance index): 1.0
SoHPPD A318R, L350M
  TI (normalized tolerance index): 0.2
SoHPPD Q317H
  TI (normalized tolerance index): 0.1
[4]
  TI (normalized tolerance index): 1.2
[5]
  TI (normalized tolerance index): 0.7
[6]
  TI (normalized tolerance index): 0.4
[7]
  TI (normalized tolerance index): 0.2
SoHPPD E345Q (short)
  TI (normalized tolerance index): 0.2
SoHPPD Q317M (short)
  TI (normalized tolerance index): 1.1
SoHPPD F363I (short)
  TI (normalized tolerance index): not inhibited; also recorded: no inhi-
[8]
  TI (normalized tolerance index): 0.9
SoHPPD E379Q (short)
  TI (normalized tolerance index): 0.2
[9]
  TI (normalized tolerance index): 0.1
[10]
  TI (normalized tolerance index): 0.1
SoHPPD F363I
  TI (normalized tolerance index): 2,7
SoHPPD I455V
  TI (normalized tolerance index): 0.4
SoHPPD V251A (short)
  TI (normalized tolerance index): 0.1
SoHPPD Q317H (short)
  TI (normalized tolerance index): 0.7
SoHPPD L367V, I375L
  TI (normalized tolerance index): 0.1
SoHPPD H306K (short)
  TI (normalized tolerance index): 0.2
SoHPPD I419V (short)
  TI (normalized tolerance index): 0.3
